From patent US12102648B2, “Orally-bioavailable nucleoside analogs” (priority 2021, dated 2024)
Read-outs that look alike come from different tables or passages of the source.

Assay: in vitro
Assay type: in vitro ADME
Details: human
How it was run: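 Caco-2 monolayers cultured 19 days on inserts (TEER >600 […]); bidirectional A-to-B and B-to-A transport at 37° C over 90 min, samples quantified by LC/MS/MS. Papp, efflux ratio and recovery calculated; ER >2 flags potential efflux substrates.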

[1] = Caco-2 monolayer, apical to basolateral, 90-minute incubation, read-out: Papp, A-B
[2] = Caco-2 monolayer, basolateral to apical, 90-minute incubation, read-out: Papp, B-A
[3] = Caco-2 monolayer, ER>2 indicates potential efflux transporter substrate, read-out: ER (efflux ratio)

SMILES	Papp A→B at 90 min (Caco-2)	Papp B→A at 90 min (Caco-2)	efflux ratio at 90 min (Caco-2)	Papp A→B at 90 min [1]	Papp B→A at 90 min [2]	efflux ratio at 90 min [3]
CCCCC(=O)Nc1ncnn2c([C@]3(C#N)O[C@H](COC(=O)CC4CCCCC4)[C@@H](O)[C@H]3O)ccc12 [Compound 284, ((2R,3S,4R,5R)-5-cyano-3,4-dihydroxy-5-(4-pentanamidopyrrolo[2,1-f][1,2,4]triazin-7-yl)tetrahydrofuran-2-yl)methyl 2-cyclohexylacetate]	1.7 ×10⁻⁶ cm/s	0.95 ×10⁻⁶ cm/s	0.56			
CC(=O)Nc1ncnn2c([C@]3(C#N)O[C@H](COC(=O)Cc4ccccc4)[C@@H](OC(=O)[C@@H](N)C(C)C)[C@H]3O)ccc12 [Compound 344, (2R,3S,4R,5R)-5-(4-acetamidopyrrolo[2,1-f][1,2,4]triazin-7-yl)-5-cyano-4-hydroxy-2-((2-phenylacetoxy)methyl)tetrahydrofuran-3-yl L-valinate]				0.8 ×10⁻⁶ cm/s	9.7 ×10⁻⁶ cm/s	12
CC(C)CC(=O)N[C@H](C(=O)OC[C@H]1O[C@@](C#N)(c2ccc3c(N)ncnn23)[C@H](O)[C@@H]1O)C(C)C [Compound 255, [(2R,3S,4R,5R)-5-{4-aminopyrrolo[2,1-f][1,2,4]triazin-7-yl}-5-cyano-3,4-dihydroxyoxolan-2-yl]methyl (2S)-3-methyl-2-(3-methylbutanamido)butanoate]	2.1 ×10⁻⁶ cm/s	5.3 ×10⁻⁶ cm/s	2.5			
CS(=O)(=O)N1CCC(CC(=O)OC[C@H]2O[C@@](C#N)(c3ccc4c(N)ncnn34)[C@H](O)[C@@H]2O)CC1 [Compound 268, ((2R,3S,4R,5R)-5-(4-aminopyrrolo[2,1-f][1,2,4]triazin-7-yl)-5-cyano-3,4-dihydroxytetrahydrofuran-2-yl)methyl 2-(1-(methylsulfonyl)piperidin-4-yl)acetate]	0.04 ×10⁻⁶ cm/s	1.8 ×10⁻⁶ cm/s	45			
CC(C)[C@H](N)C(=O)Nc1ncnn2c([C@]3(C#N)O[C@H](COC(=O)Cc4ccccc4)[C@@H](O)[C@H]3O)ccc12 [Compound 113]				0.01 ×10⁻⁶ cm/s	4.8 ×10⁻⁶ cm/s	320
CC(C)C(=O)OC[C@H]1O[C@@](C#N)(c2ccc3c(N)ncnn23)[C@H](O)[C@@H]1OC(=O)Cc1ccccc1 [Compound 60, ((2R,3S,4R,5R)-5-(4-aminopyrrolo[2,1-f][1,2,4]triazin-7-yl)-5-cyano-4-hydroxy-3-(2-phenylacetoxy)tetrahydrofuran-2-yl)methyl isobutyrate]				2.8 ×10⁻⁶ cm/s	1.7 ×10⁻⁶ cm/s	0.58
CC(C)C(=O)OC[C@H]1O[C@@](C#N)(c2ccc3c(N)ncnn23)[C@H](O)[C@@H]1OCOC(=O)C(C)(C)C [Compound 64, (((2R,3S,4R,5R)-5-(4-aminopyrrolo[2,1-f][1,2,4]triazin-7-yl)-5-cyano-4-hydroxy-2-((isobutyryloxy)methyl)tetrahydrofuran-3-yl)oxy)methyl pivalate]	5.9 ×10⁻⁶ cm/s	7.1 ×10⁻⁶ cm/s	1.2			
CCCCCOC(=O)Nc1ncnn2c([C@]3(C#N)O[C@H](COC(=O)Cc4ccccc4)[C@@H](O)[C@H]3O)ccc12 [Compound 89, ((2R,3S,4R,5R)-5-cyano-3,4-dihydroxy-5-(4-(((pentyloxy)carbonyl)amino)pyrrolo[2,1-f][1,2,4]triazin-7-yl)tetrahydrofuran-2-yl)methyl 2-phenylacetate]				2.1 ×10⁻⁶ cm/s	6.6 ×10⁻⁶ cm/s	3.2
CNc1nc(N)nc2c1ncn2[C@@H]1O[C@H](COC(=O)CC2CCCCC2)[C@@H](OC(C)=O)[C@@]1(C)F [Compound 215, ((2R,3R,4R,5R)-3-acetoxy-5-(2-amino-6-(methylamino)-9H-purin-9-yl)-4-fluoro-4-methyltetrahydrofuran-2-yl)methyl 2-cyclohexylacetate]	9.3 ×10⁻⁶ cm/s	1.6 ×10⁻⁶ cm/s	0.18			
CCC(=O)O[C@H]1[C@@H](O)[C@](C#N)(c2ccc3c(N)ncnn23)O[C@@H]1COC(=O)CC(C)C [Compound 23, ((2R,3S,4R,5R)-5-(4-aminopyrrolo[2,1-f][1,2,4]triazin-7-yl)-5-cyano-4-hydroxy-3-(propionyloxy)tetrahydrofuran-2-yl)methyl 3-methylbutanoate]	6.3 ×10⁻⁶ cm/s	8.1 ×10⁻⁶ cm/s	1.3			
CNc1nc(NC(=O)CC2CCCCC2)nc2c1ncn2[C@@H]1O[C@H](COC(=O)CC2CCCCC2)[C@@H](O)[C@@]1(C)F [Compound 292, ((2R,3R,4R,5R)-5-(2-(2-cyclohexylacetamido)-6-(methylamino)-9H-purin-9-yl)-4-fluoro-3-hydroxy-4-methyltetrahydrofuran-2-yl)methyl 2-cyclohexylacetate]	2 ×10⁻⁶ cm/s	1 ×10⁻⁶ cm/s	0.5			
N#C[C@@]1(c2ccc3c(N)ncnn23)O[C@H](COP(=O)(O)OCCCCCCCCCCCCCCCC(=O)O)[C@@H](O)[C@H]1O [Compound 8, 16-(((((2R,3S,4R,5R)-5-(4-aminopyrrolo[2,1-f][1,2,4]triazin-7-yl)-5-cyano-3,4-dihydroxytetrahydrofuran-2-yl)methoxy)(hydroxy)phosphoryl)oxy)hexadecanoic acid]	0.2 ×10⁻⁶ cm/s	0.5 ×10⁻⁶ cm/s	2.4			
CC(C)(C)C(=O)OCOC(=O)Nc1ncnn2c([C@]3(C#N)O[C@H](CO)[C@@H](OC(=O)CC4CCCCC4)[C@H]3O)ccc12 [Compound 370, (((7-((2R,3R,4S,5R)-2-cyano-4-(2-cyclohexylacetoxy)-3-hydroxy-5-(hydroxymethyl)tetrahydrofuran-2-yl)pyrrolo[2,1-f][1,2,4]triazin-4-yl)carbamoyl)oxy)methyl pivalate]	0.3 ×10⁻⁶ cm/s	0.23 ×10⁻⁶ cm/s	0.77			
CCCCCOC(=O)Nc1ncnn2c([C@]3(C#N)O[C@H](COC(=O)CC(C)C)[C@@H](O)[C@H]3O)ccc12 [Compound 93, ((2R,3S,4R,5R)-5-cyano-3,4-dihydroxy-5-(4-(((pentyloxy)carbonyl)amino)pyrrolo[2,1-f][1,2,4]triazin-7-yl)tetrahydrofuran-2-yl)methyl 3-methylbutanoate]	2.8 ×10⁻⁶ cm/s	1.5 ×10⁻⁶ cm/s	0.54			
N#C[C@@]1(c2ccc3c(NC(=O)c4ccccc4)ncnn23)O[C@H](COC(=O)CC2CCCCC2)[C@@H](O)[C@H]1O [Compound 285, ((2R,3S,4R,5R)-5-(4-benzamidopyrrolo[2,1-f][1,2,4]triazin-7-yl)-5-cyano-3,4-dihydroxytetrahydrofuran-2-yl)methyl 2-cyclohexylacetate]	1.1 ×10⁻⁶ cm/s	0.9 ×10⁻⁶ cm/s	0.83			
CC(C)[C@H](N)C(=O)O[C@H]1[C@@H](OC(=O)[C@@H](N)C(C)C)[C@](C#N)(c2ccc3c(N)ncnn23)O[C@@H]1COC(=O)CC1CCCCC1 [Compound 356, (2R,3R,4R,5R)-2-(4-aminopyrrolo[2,1-f][1,2,4]triazin-7-yl)-2-cyano-5-((2-cyclohexylacetoxy)methyl)tetrahydrofuran-3,4-diyl (2S,2'S)-bis(2-amino-3-methylbutanoate)]	0.6 ×10⁻⁶ cm/s	3.6 ×10⁻⁶ cm/s	6			
CC(C)(C)C(=O)OCO[C@H]1[C@@H](O)[C@](C#N)(c2ccc3c(N)ncnn23)O[C@@H]1COC(=O)Cc1ccccc1 [Compound 48, {[(2R,3S,4R,5R)-5-{4-aminopyrrolo[2,1-f][1,2,4]triazin-7-yl}-5-cyano-4-hydroxy-2-{[(2-phenylacetyl)oxy]methyl}oxolan-3-yl]oxy}methyl 2,2-dimethylpropanoate]				6.9 ×10⁻⁶ cm/s	1.9 ×10⁻⁶ cm/s	0.27
COC1(CC(=O)OC[C@H]2O[C@@](C#N)(c3ccc4c(N)ncnn34)[C@H](O)[C@@H]2O)CCCCC1 [Compound 287, ((2R,3S,4R,5R)-5-(4-aminopyrrolo[2,1-f][1,2,4]triazin-7-yl)-5-cyano-3,4-dihydroxytetrahydrofuran-2-yl)methyl 2-(1-methoxycyclohexyl)acetate]	5.2 ×10⁻⁶ cm/s	13 ×10⁻⁶ cm/s	2.4			
CC(C)[C@H](N)C(=O)Nc1ncnn2c([C@]3(C#N)O[C@H](CO)[C@@H](OC(=O)Cc4ccccc4)[C@H]3O)ccc12 [Compound 144, (2R,3S,4R,5R)-5-(4-((S)-2-amino-3-methylbutanamido)pyrrolo[2,1-f][1,2,4]triazin-7-yl)-5-cyano-4-hydroxy-2-(hydroxymethyl)tetrahydrofuran-3-yl 2-phenylacetate]				0.03 ×10⁻⁶ cm/s	1.8 ×10⁻⁶ cm/s	53
CC(C)C(=O)OC[C@H]1O[C@@](C#N)(c2ccc3c(NC(=O)c4ccccc4)ncnn23)[C@H](O)[C@@H]1O [Compound 108, ((2R,3S,4R,5R)-5-(4-benzamidopyrrolo[2,1-f][1,2,4]triazin-7-yl)-5-cyano-3,4-dihydroxytetrahydrofuran-2-yl)methyl isobutyrate]	1.5 ×10⁻⁶ cm/s	2 ×10⁻⁶ cm/s	1.4			
CC(=O)OC[C@H]1O[C@@](C#N)(c2ccc3c(N)ncnn23)[C@H](O)[C@@H]1OC(=O)Cc1ccccc1 [Compound 52, (2R,3S,4R,5R)-2-(acetoxymethyl)-5-(4-aminopyrrolo[2,1-f][1,2,4]triazin-7-yl)-5-cyano-4-hydroxytetrahydrofuran-3-yl 2-phenylacetate]				1.4 ×10⁻⁶ cm/s	0.89 ×10⁻⁶ cm/s	0.65
C[C@H](C(=O)OC[C@H]1O[C@@](C#N)(c2ccc3c(N)ncnn23)[C@H](O)[C@@H]1O)C1CCCCC1 [Compound 281, ((2R,3S,4R,5R)-5-(4-aminopyrrolo[2,1-f][1,2,4]triazin-7-yl)-5-cyano-3,4-dihydroxytetrahydrofuran-2-yl)methyl (S)-2-cyclohexylpropanoate]	13 ×10⁻⁶ cm/s	29 ×10⁻⁶ cm/s	2.3			
